How the values were obtained:
PBMCs = test: Lymphocyte activation in PBMCs (CD69 and activated LFA-1, flow cytometry); format: cell-based, human; details: PBMCs stimulated with PMA and Ionomycin, vs control
Experimental: Figures show 1×10^6 PBMC cells/ml stimulated with PMA and Ionomycin that were treated with DMSO or WASp-binding SMCs. After incubation, the cells were stained with PE-Cy5™-conjugated mouse anti-human CD69 and lymphocyte activation was measured by flow-cytometry as described in the Experimental procedures. Histograms of DMSO versus SMC #6 (FIG. 8A), SMC #30 (FIG. 8B), SMC #33 (FIG. 8C), and SMC #34 (FIG. 8D) are presented and represent three independent experiments.
After incubation, the cells were stained with anti-activated LFA-1 antibody (KIM127), followed by staining with Alexa488-Fluor goat anti-mouse IgG1 secondary antibody, and lymphocyte activation was measured by flow-cytometry as described in the Experimental procedures. Histogram of negative control versus SMC #6 is presented.
PBMCs or Jurkat cells (about 3×10^5 cells) were incubated for 4 h, at 37° C. with 50 ng/ml PMA and 250 ng/ml lonomycin, or 40 ng/ml PMA and 6 μM Ionomycin, respectively, or left untreated. After incubation, the cells were collected and stained with 1 μg/ml anti-active human LFA-1 antibody (purified from KIM127 hybridoma sup, ATCC Cat #: CRL-2838, Sigma) for 30 min in 37° C., followed by staining with Alexa488-Fluor goat anti-mouse IgG1 secondary antibody (Molecular Probes, Cat #: A-21121), 30 min on ice. Cells were then co-stained with PE-Cy5™-conjugated mouse anti-human CD69 (BD Pharmingen, Cat #: 555532) to measure lymphocyte activation.
Lymphocyte activation is a hallmark of a normal immune response. To test whether treatment with WASp-binding SMCs could upregulate lymphocyte activation, freshly-isolated PBMCs were incubated with SMCs or control (solvent only) and stimulated with PMA and lonomycin. The cells were then stained with two different antibodies, which recognize two lymphocyte activation markers, CD69 and an epitope exposed at the active conformation of the integrin LFA-1 (KIM127). Both were detected by flow-cytometry.

Jurkat T cells = test: Lymphocyte migration on ICAM-1/SDF-1α-coated cover glasses; format: cell-based, human; details: tracked over 20 min, mean ± SE
Experimental: Jurkat T cells were pretreated with DMSO or the indicated WASp-binding SMCs, and cell migration on ICAM-1/SDF-1α-coated cover glasses was tracked over a 20-min period, as described in Experimental procedures. Each line in FIG. 10A represents one cell. The tracks of five representative cells from each treatment are presented.
Error bars represent the SE from the mean. P values versus DMSO-treated control cells are presented and were calculated by two-tailed Student's t-test.
Approximately 1×10^5 lymphocytes were seeded over chambered coverslips (LabTek) pre-coated with 6 μg/ml ICAM-1 and 2 μg/ml SDF-1α. Cells were incubated at 37° C., 5% CO2 and DIC images were acquired with the Zeiss Observer Z1 inverted microscope every 5 s for 20 min under a 20× objective lens using Zen software. The random movement (Displacement and velocity) of the cells was automatically tracked and analyzed using TrackMate plugin of ImageJ software. An individual trace was assigned to each of the analyzed cells.
A common theme of active lymphocytes is their high migratory ability. This enables them to move within tissues and reach and engage target cells (Burkhardt et al, 2008). Because WASp plays a role in cellular motility, the ability of WASp-binding SMCs to effectively enhance the migration of lymphocytes was tested. The random movement of SMC-treated or control cells was automatically tracked and analyzed using live microscopy, as described in Experimental procedures.

platelets = test: Platelet intra-cellular calcium concentration (Indo-1-AM); format: cell-based, human; details: TRAP-6 10 μM, vs solvent
Experimental: Freshly-isolated human platelets were incubated with either control DMSO or the indicated WASp-binding SMCs, specifically, SMC #6 (FIG. 11A), SMC #30 (FIG. 11B), SMC #33 (FIG. 11C) and SMC #34 (FIG. 11D). Platelets were stimulated with TRAP-6 and calcium levels were measured by spectrofluorometer, as described in Experimental procedures. Data are representative of three independent experiments.
Cells were incubated with 5 μM Indo-1-acetoxymethylester (Indo-1-AM, Teflabs) in Tyrode's buffer at 37° C. for 20 min. The cells were washed once, resuspended in Tyrode's buffer containing 10 mM HEPES and maintained at room temperature for 20 min. The cells were incubated at 37° C. for 5 min before measurements and then stimulated with 10 μM TRAP-6. The Ca^2+ influx was measured by spectrofluorometer using the Synergy 4 Microplate Reader (Bio Tek).
However, following receptor-mediated stimulation, platelets dramatically elevate their intra-cellular calcium concentrations, which in turn serve as signaling cues that evoke platelet effector functions, including platelet spreading, adhesion and aggregation (Varga-Sabo et al, 2009). Therefore, the ability of WASp-protecting SMCs to upregulate intra-cellular calcium accumulation in activated platelets was next tested. Freshly-isolated human platelets were incubated with SMC #6, #30, #33 and #34 or with the solvent (negative control). Following incubation, platelets were stimulated with thrombin receptor activator peptide TRAP-6 (10 μM) and calcium levels were measured by spectrofluorometer, using Indo-1-AM-based calcium assay as described in Experimental procedures.

WIP-WASp interaction = molecular target: T1, WIP-WASp interaction (Homo sapiens, UniProt P42768, K230R/R34Q); test: FRET analysis of WIP-WASp interaction in activated T-cells expressing CFP-WASp and YFP-WIP; format: cell-based; details: anti-CD3 stimulatory coverslips, fixed after 5 min; mean ± SE
T1 construct: expressed in transfected cells
Experimental: FIG. 13A: Jurkat T cells stably expressing CFP-WASp and YFP-WIP were treated with WASp-binding SMC #6, SMC #30, SMC #33, SMC #34 or control. The cells were then plated on stimulatory coverslips (coated with an anti-CD3 antibody), and fixed after 5 min. Cells were imaged by confocal microscope, and FRET efficiency was measured by the donor-sensitized acceptor emission technology (see Experimental procedures for details).
FIG. 13B: graph summarizing the percentage FRET efficiency in cells plated on the stimulatory coverslips, with the indicated treatment. Data are from four independent experiments. Error bars represent the SE from the mean. P values were calculated by two-tailed Student's t-test.
Spreading assays were performed as previously described (Fried et al, 2014; Barda-Saad 2005). Briefly, T cells (2×10^6 cells/ml) were seeded on the bottom of chambered cover glasses (LabTek) that were pre-coated with anti-CD3 stimulatory monoclonal antibodies (10 μg/ml). The cells were incubated in imaging buffer [RPMI without phenol red containing 10% fetal calf serum (FCS) and 25 mM HEPES] at 37° C., 5% CO2, for the times indicated in the figure legends. Cells were fixed for 25 min with 4% paraformaldehyde in phosphate-buffered saline (PBS) and then were washed three times with PBS.
Double-color FRET was performed as described previously (Barda-Saad et al, 2005; Pauker, 2011, Pauker, 2012). […] The non-FRET components were calculated and removed with calibration curves derived from images of single-labeled cells containing CFP or YFP, as previously described (Barda-Saad et al, 2005). […] Bleed-through components were calculated as a function of the intensity of the expressed fluorescent proteins with data gathered from single-labeled cell lines. By using the intensity measured pixel by pixel through the different filter sets, as well as cross-talk elements that were isolated from the control, single-labeled cells, the measured FRET was corrected and the actual FRET efficiency at every pixel was determined. The relative FRET efficiency (FRETeff) was calculated on a pixel-by-pixel basis with the following equation: FRETeff=FRETcorr/(FRETcorr+donor)×100%, where FRETcorr is the pixel intensity in the corrected FRET image, and donor is the intensity of the corresponding pixel in the appropriate donor channel image. To increase the reliability of the calculations and to prevent low-level noise from distorting the calculated ratio, the inventors excluded pixels below 50 intensity units, as well as saturated pixels from the calculations, and set their intensities to zero. […] The FRET efficiency in the negative control system was measured and calculated in the same manner as that in the main experiment. […]

human WASp = molecular target: T2, human WASp (Homo sapiens, UniProt P42768, K230R/R34Q); test: MicroScale Thermophoresis (MST) binding, YFP-WASp in HEK 293T cell lysate
T2 construct: expressed in transfected cells; host or cells: HEK 293T, transient transfection; unpurified cell lysate
T2 sequence (P42768 1-502 R34Q/K230R): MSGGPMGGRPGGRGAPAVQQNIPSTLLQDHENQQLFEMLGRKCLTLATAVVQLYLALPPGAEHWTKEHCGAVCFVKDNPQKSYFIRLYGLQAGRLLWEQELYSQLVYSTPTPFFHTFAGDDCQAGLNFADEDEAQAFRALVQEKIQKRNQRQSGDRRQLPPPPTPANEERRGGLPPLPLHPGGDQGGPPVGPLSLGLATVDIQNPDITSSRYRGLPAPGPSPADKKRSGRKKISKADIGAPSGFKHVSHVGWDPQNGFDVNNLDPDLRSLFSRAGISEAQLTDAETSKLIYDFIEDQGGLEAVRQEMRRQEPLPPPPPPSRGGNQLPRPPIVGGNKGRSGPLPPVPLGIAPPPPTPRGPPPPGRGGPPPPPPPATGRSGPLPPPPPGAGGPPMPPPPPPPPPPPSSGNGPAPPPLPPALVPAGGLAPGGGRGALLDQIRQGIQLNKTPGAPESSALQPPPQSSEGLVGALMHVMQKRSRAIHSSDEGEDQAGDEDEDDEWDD
Experimental: Diluted cell lysates of YFP-WASp/N-WASp/WAVE2-expressing HEK 293T cells were incubated with serially-diluted (100 μM-3 nM) SMCs. The mixed lysates and SMCs were then loaded into standard-treated Monolith™ capillaries and the fluorescence of the samples was measured by the Monolith NT.115 instrument at 60% MST power. Binding curves of WASp with SMC #6 (FIG. 3A), SMC #30 (FIG. 3B), SMC #33 (FIG. 3C), SMC #34 (FIG. 3D) and Y-27632 (FIG. 3E) or of N-WASp (FIG. 3F) or WAVE2 (FIG. 3G) with SMC #34 were generated by the NanoTemper Analysis 2.231 software. Normalized fluorescence (hot fluorescence/initial fluorescence) is plotted as a function of SMC concentration. […]
YFP-tagged WASp was obtained from cell lysates of Human Embryonic Kidney (HEK) 293T, transiently transfected with YFP-WASp/WAVE2/N-WASp by DNA-calcium phosphate co-precipitation as previously described (Reicher et al, 2012). […] After loading into the instrument (Monolith NT.115, NanoTemper), the samples were measured by standard protocols at 60% MST power. […] KD values were determined using the NanoTemper analysis software (NT Analysis 1.5.37 or 2.2.31).
Following this in silico screening, the inventors identified eight SMCs (#6, #23, #24, #25, #30, #32, #33, #34, see Table 1). […] The SMCs that specifically bind the degradation pocket of WASp were further evaluated by the inventors.

T1 sequence (O43516 whole entry partner, one chain of several): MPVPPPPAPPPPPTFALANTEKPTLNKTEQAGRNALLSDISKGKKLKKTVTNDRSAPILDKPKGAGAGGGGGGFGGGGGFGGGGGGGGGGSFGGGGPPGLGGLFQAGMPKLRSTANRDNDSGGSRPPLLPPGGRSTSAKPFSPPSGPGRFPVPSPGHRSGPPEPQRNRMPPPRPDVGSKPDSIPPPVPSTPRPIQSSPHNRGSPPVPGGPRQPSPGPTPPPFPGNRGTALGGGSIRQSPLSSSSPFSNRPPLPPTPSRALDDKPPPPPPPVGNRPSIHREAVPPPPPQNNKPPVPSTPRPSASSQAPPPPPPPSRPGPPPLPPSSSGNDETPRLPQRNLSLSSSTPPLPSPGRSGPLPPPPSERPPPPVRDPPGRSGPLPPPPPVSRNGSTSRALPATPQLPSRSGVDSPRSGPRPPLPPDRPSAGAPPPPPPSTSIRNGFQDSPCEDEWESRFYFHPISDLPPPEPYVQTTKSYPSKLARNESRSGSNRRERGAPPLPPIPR

Row | SMILES | lymphocyte activation (CD69, activated LFA-1) (PBMCs) | mean cell displacement (Jurkat T cells) | intra-cellular calcium concentration in activated platelets (platelets) | average FRET efficiency (WIP-WASp interaction) [%] | binding to WASp (human WASp)
1 | COC(=O)c1ccc2c(=O)n(Cc3ccc(C(=O)NC4CCCC4)cc3)c(=S)[nH]c2c1 [SMC #30, 3-(4-Cyclopentylcarbamoyl-benzyl)-4-oxo-2-thioxo-1,2,3,4-tetrahydro-quinazoline-7-carboxylic acid methyl ester] | upregulation of lymphocyte activation | 41.07±4.69 | dramatically enhanced | 24.4±1.4 | 
2 | C[C@@H](N)[C@H]1CC[C@H](C(=O)Nc2ccncc2)CC1 [Y-27632] |  |  |  |  | did not show binding

From US12150940B2, “WASp-protecting small molecules, compositions, methods and uses thereof in the treatment of innate and acquired immune-related disorders or conditions” (BAR ILAN UNIVERSITY, priority 2016, dated 2024)
